Here are results for 5 sequences from patent US7563764B2, “Antimicrobial peptides based on tripeptide repeats” (E. I. du Pont de Nemours and Company, priority 2004, dated 2009).

The experiment has as its system E. coli ATCC 25922. It is filed as cell-based, Escherichia coli. The conditions noted are these: ATCC 25922, 24 h. The protocol: The term “MIC” refers to minimal inhibitory concentration and will be defined as the lowest concentration of either soluble peptide or peptide immobilized on a polymer that results in total kill of bacteria.
The minimal inhibitory concentration (MIC) for the peptides was determined in sterile microtiter plates in a final volume of 200 μL using Trypticase Soy Broth (TSB; Difco Laboratories, Detroit, Mich.) as the growth medium. Serial two-fold dilutions of the peptide stock were made in the plate wells such that concentrations ranged from 512 to 2 μg/mL in a volume of 100 μL. Each well was then inoculated with 100 μL of a dilute suspension of bacteria in TSB yielding a final concentration of 1×10^4 bacteria/mL. The final peptide concentrations ranged from […]. The assay plates were incubated at 37° C. for 24 hours inside a Bioscreen C microtitre plate reader (Thermo Labsystems; Vantaa, Finland). Optical Density (OD) of the medium at 600 nm was recorded every 20 minutes to monitor cell growth. The lowest concentration of peptide preventing bacterial growth during the 24 hr period was defined as the MIC.

The term MIC denotes the smallest concentration in the dilution series that meets the test's criterion for growth inhibition. The low end stands for greater potency, the high end for weaker potency.

No end group written: not given here.

“FKAFKAFKAFKAFKA [SEQ ID NO: 4, FKAFKAFKAFKAFKA]” registered an MIC of 128 µg/mL.

Consider “FKAFKAFKAFKAFKAFKA [SEQ ID NO: 5, FKAFKAFKAFKAFKAFKA]”, for which the MIC stood at 32 µg/mL.

“LKALKALKALKALKR [SEQ ID NO: 1, LKALKALKALKALKR]”: the MIC amounted to 64 µg/mL.

“LKVLKVLKVLKVLKV [SEQ ID NO: 2, LKVLKVLKVLKVLKV]”: the MIC stood at 32 µg/mL.

Sequence “LKVLKVLKVLKVLKVLKV [SEQ ID NO: 3, LKVLKVLKVLKVLKVLKV]” showed an MIC of 4 µg/mL.
